How the values were obtained:
MEK2 = target: T1, MEK2 (Homo sapiens, UniProt P36507); assay: microscale thermophoresis, labelled recombinant MEK2; type: binding
T1 construct: gene MAP2K2

MEK1 = target: T2, MEK1 (Homo sapiens, UniProt Q02750); assay: microscale thermophoresis, labelled recombinant human MEK1; type: binding
T2 construct: gene MAP2K1
T2 sequence (Q02750 whole entry): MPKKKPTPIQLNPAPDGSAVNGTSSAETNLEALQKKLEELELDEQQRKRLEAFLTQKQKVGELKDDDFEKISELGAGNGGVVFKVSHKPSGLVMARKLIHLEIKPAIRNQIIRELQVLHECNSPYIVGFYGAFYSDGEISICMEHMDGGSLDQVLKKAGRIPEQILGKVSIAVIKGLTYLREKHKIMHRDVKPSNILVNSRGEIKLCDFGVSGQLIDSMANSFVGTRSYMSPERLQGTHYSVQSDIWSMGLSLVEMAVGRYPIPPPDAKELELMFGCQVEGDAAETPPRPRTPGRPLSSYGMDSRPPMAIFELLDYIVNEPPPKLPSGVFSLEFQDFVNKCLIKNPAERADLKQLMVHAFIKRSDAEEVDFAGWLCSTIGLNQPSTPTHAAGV

T1 sequence (P36507 whole entry): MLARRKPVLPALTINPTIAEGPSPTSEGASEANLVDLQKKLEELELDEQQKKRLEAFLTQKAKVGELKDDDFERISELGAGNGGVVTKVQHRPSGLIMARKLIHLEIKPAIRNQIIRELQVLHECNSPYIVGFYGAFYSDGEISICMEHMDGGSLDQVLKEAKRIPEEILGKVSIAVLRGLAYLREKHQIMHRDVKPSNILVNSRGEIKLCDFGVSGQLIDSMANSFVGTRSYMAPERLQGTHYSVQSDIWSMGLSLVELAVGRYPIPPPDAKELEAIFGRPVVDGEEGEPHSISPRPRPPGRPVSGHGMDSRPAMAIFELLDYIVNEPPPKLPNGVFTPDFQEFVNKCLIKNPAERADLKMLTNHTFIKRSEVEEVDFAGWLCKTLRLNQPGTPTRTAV

C[C@H]1O[C@@H](O[C@@H]2[C@H](O)C[C@@H](O[C@@H]3[C@H](O)C[C@@H](O[C@H]4CC[C@@]5(C)[C@@H](CC[C@H]6[C@H]5C[C@@H](O)[C@]5(C)[C@H](C7=CC(=O)OC7)CC[C@]65O)C4)O[C@@H]3C)O[C@@H]2C)C[C@H](O)[C@@H]1O [ZINC253504760, 3-[(3S,5S,8S,9R,10S,12R,13S,14S,17S)-3-[(2S,4R,5R,6R)-5-[(2R,4R,5R,6R)-5-[(2S,4S,5S,6R)-4,5-dihydroxy-6-methyloxan-2-yl]oxy-4-hydroxy-6-methyloxan-2-yl]oxy-4-hydroxy-6-methyloxan-2-yl]oxy-12,14-dihydroxy-10,13-dimethyl-1,2,3,4,5,6,7,8,9,11,12,15,16,17-tetradecahydrocyclopenta[a]henanthrene-17-yl]-2H-furan-5-one]
Kd (MEK2): 2200 nM
Kd (MEK1): 500 nM
